As a reminder, the EC50 is the concentration that produces a half-maximal response. High values mean a need for much substance, low ones an effect from little substance.

This note sets out measurements from US20260217688A1, “INHIBITORS OF JAK2” (Llydaw Therapeutics, Inc., priority 2022, published 2026).

One data set concerns Ba/F3 (JAK2 V617F) cells. As to the kind of experiment: Proliferation inhibition assay (CellTiter-Glo), Ba/F3 JAK2 V617F. Type of data set: cell-based. The following applies: Mus musculus, BaF3; without IL3, 72 h; read-out: Ba/F3 JAK2 V617F, CC50 3 days. The protocol:
(§1) Ba/F3 (JAK2 wt) (ABM, T3076) cells and Ba/F3 (JAK2 V617F) (WuXi AppTec) cells were grown in RPMI-1640 (Gibco, cat. number 21870) supplemented with 10% FBS (Hyclone Laboratories Inc, Cat #SV30160.03), 1× Antibiotic-antimycotic (Gibco, Cat #15240-062), 2× Sodium pyruvate (Paneco, cat #F023), 2× Essential amino acids (Paneco, cat #F115/100), 1× Non-Essential amino acids (Paneco, cat #F116) at 37° C. in 5% CO2 atmosphere.
(§2) For the proliferation inhibition assay Ba/F3 (JAK2 wt) and Ba/F3 (JAK2 V617F) cells were seeded into a CellBIND® 384-well Flat Clear Bottom Black Polystyrene Microplates (Corning, USA, Cat #3770) at a density of 4000 cells per well in complete culture medium with or without 10 ng/ml rmIL-3 (RD systems, USA, Cat #403-ML-025) using Biomek FX/NX (384) liquid handler, 45 μl of cell suspension in complete culture medium per well. 500× compound's stocks in DMSO (Sigma Cat #D2650) were prepared in compounds plate (Diamond Well Plate, Axigen, Cat #P-384-120 SQ-C-S) applying Biomek 2000. 1 μl of 500× compounds stock was added to 49 μl of complete culture medium into Dilution plate (Diamond Well Plate, Axigen, Cat #P-384-120 SQ-C-S), mixed and then 5 μl of 10× compounds solution was transferred to cells using Biomek FX/NX (384) liquid handler. The centrifugation at 100 g for 1 min at Eppendorf 5810 followed. Final DMSO concentration in assay was 0.2%. All treatments were performed in technical and biological duplicates. Treated cells were incubated for 72 h at 37° C. with 5% CO2.
(§3) After 3 days of incubation, CellTiter-Glo Luminescent Cell Viability Assay (Promega) was performed. 10 μl of CellTiter-Glo (Promega, CAT #G7572) was added to the cells using Biomek FX/NX (384) liquid handler. The assay plate was centrifuged at 100 g for 1 min and luminescence signal was measured using Microplate Reader (CLARIOStar).
Background: ATP-based viability assays read luminescence as a measure of living cells.

Experiment in data set [1]: as above
The data set is classed as cell-based. The following applies: mouse, Ba/F3 (JAK2 V617F) cells; with 10 ng/ml rmIL-3, 72 h; read-out: Ba/F3 JAK2 V617F + IL3, CC50 3 days. The method, then: as §1, §2, §3

In the next data set the target is T1, JAK2 JH2 (Homo sapiens, UniProt O60674).
T1 construct: Enzyme: JAK2 JH2, His-Avi-Tag, Biotin-Labeled (BPS Bioscience, Cat #79074) 1 nM; His; purchased BPS Bioscience 79074
As to the kind of experiment: JAK2 JH2 TR-FRET Assay. The data set is classed as binding. The note with it: JAK2 JH2 1 nM, Tracer ZE84-0003 10 nM. The protocol:
Assay Buffer 1×: • 20 mM HEPES pH 7.2-7.4; • 10 mM MgCl2; • 0.015% Brij-35; • 2 mM DTT; • 0.05 mg/ml BSA.
Final assay concentrations: • DMSO: 0.25%; • Streptavidin Tb-cryptate (Cisbio, Cat #610SATLB) 0.2 nM; • Enzyme: JAK2 JH2, His-Avi-Tag, Biotin-Labeled (BPS Bioscience, Cat #79074) 1 nM; • Probe: Tracer ZE84-0003 (ChemRar) 10 nM.
Materials: • Reaction plate: ProxiPlate-384 Plus White Plate (PerkinElmer); • Dilution plate: Diamond Well Plate (Axygen, Cat #P-384-120 SQ-C-S); • Compounds plate: Diamond Well Plate (Axygen, Cat #P-384-120 SQ-C-S).
Assay protocol: • 1. Prepare 400× solutions of compounds in DMSO into Compounds plate; • 2. Prepare Dilution plate: add 39 μL of 1× Assay buffer per well of Dilution plate; • 3. Prepare 2×Tb-cryptate mix in 1× Assay buffer. Add 10 μL of 2×Tb-cryptate mix to K-(Tb-cryptate and Probe without Enzyme) wells and blank (Tb-cryptate without Probe and Enzyme) wells; • 4. Add JAK2 JH2 into the rest of 2×Tb-cryptate mix to make 2×JAK2 JH2+Tb-cryptate mix. Add 10 μL per well into Reaction plate; • 5. Centrifuge plate at 200 g for 1 min; • 6. Dilute 1 μL of 400× compounds in 39 μL 1× Assay buffer in Dilution plate; • 7. Add 2 μL of 10× compounds from Dilution plate to Reaction plate with 10 μL of JAK2 JH2+Tb-cryptate mix; • 8. Centrifuge plate at 200 g for 1 min; • 9. Pre-incubate Reaction plate with compounds 15 min; • 10. Prepare 2.5× Tracer mix; • 11. Add 8 μL of 2.5× Tracer mix into appropriate wells of Reaction plate; • 12. Centrifuge plate at 800 g for 3 min; • 13. Incubate at rt for 15 min; • 14. Measure Fluorescence using Microplate Reader (Ex: TR, Em1/Em2: 482/520). The results of this assay are shown in the Table B. The values of EC50 shown as a letters A-D, where: A≤0.01 μM; 0.01 μM<B≤0.05 μM; 0.05 μM<C≤0.1 μM; D>0.1.
(In TR-FRET formats the signal depends on donor and acceptor labels being close together.)

The nature of data set [2]: Proliferation inhibition assay (CellTiter-Glo), Ba/F3 JAK2 wt. The data set is classed as cell-based. The note with it: mouse, Ba/F3 (JAK2 wt) cells. The protocol:
as §1, §2, §3

Setting [3] is: with 10 ng/ml rmIL-3, 72 h, read-out: Ba/F3 JAK2 wt + IL3, CC50 3 days.
Where [4] appears, read: without IL3, 72 h, read-out: Ba/F3 JAK2 wt, CC50 3 days.

Some results are limits rather than exact numbers.

T1 sequence (O60674 545-809 limits assumed): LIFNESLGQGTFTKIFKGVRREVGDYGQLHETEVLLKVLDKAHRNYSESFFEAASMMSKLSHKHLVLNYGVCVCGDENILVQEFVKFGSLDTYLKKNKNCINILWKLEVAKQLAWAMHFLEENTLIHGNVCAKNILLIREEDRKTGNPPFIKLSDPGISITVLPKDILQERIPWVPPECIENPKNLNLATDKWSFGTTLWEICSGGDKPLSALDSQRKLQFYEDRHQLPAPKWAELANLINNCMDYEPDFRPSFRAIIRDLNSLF

For `COc1c(Nc2nc(Nc3cnn(CCC(C)C)c3)ncc2C(N)=O)cccc1-c1ncn(C)n1` [Compound 24, 2-[(1-isopentylpyrazol-4-yl)amino]-4-[2-methoxy-3-(1-methyl-1,2,4-triazol-3-yl)anilino]pyrimidine-5-carboxamide], the CC50 in the data set with Ba/F3 (JAK2 V617F) cells was at most 0.5 µM. Further, the figures for the CC50 at 72 h in data set [1], in data set [2] (setting [3]) and in data set [2] (setting [4]) were 0.5 to 1 µM, 5 to 10 µM and over 10 µM, respectively. Besides, the EC50 on JAK2 JH2 is 0.01 to 0.05 µM.
For `COc1c(Nc2nc(Nc3cnn(C45CC6CC(CC(C6)C4)C5)c3)ncc2C(N)=O)cccc1-c1ncn(C)n1` [Compound 30, 2-((1-(1-Adamantyl)-1H-pyrazol-4-yl)amino)-4-((2-methoxy-3-(1-methyl-1H-1,2,4-triazol-3-yl)phenyl)amino)pyrimidine-5-carboxamide] the same measures were at most 0.5 µM, 0.5 to 1 µM, 1 to 5 µM, 1 to 5 µM and 0.01 to 0.05 µM.
For `COc1c(Nc2nc(Nc3cnn(C)c3)ncc2C(N)=O)cccc1-c1ncn(C)n1` [Compound 1, 4-((2-Methoxy-3-(1-methyl-1H-1,2,4-triazol-3-yl)phenyl)amino)-2-((1-methyl-1H-pyrazol-4-yl)amino)pyrimidine-5-carboxamide] the same measures were 1 to 5 µM, 5 to 10 µM, over 10 µM, over 10 µM and 0.01 to 0.05 µM.
On to `COc1c(Nc2nc(Nc3c(C)nn(C)c3C)ncc2C(N)=O)cccc1-c1ncn(C)n1` [Compound 17, 4-[2-methoxy-3-(1-methyl-1,2,4-triazol-3-yl)anilino]-2-[(1,3,5-trimethylpyrazol-4-yl)amino]pyrimidine-5-carboxamide], for which the CC50 in the data set on Ba/F3 (JAK2 V617F) cells is over 10 µM. The CC50 at 72 h in data set [1], in data set [2] (setting [3]) and in data set [2] (setting [4]) was over 10 µM each time. At JAK2 JH2, this compound had an EC50 of over 0.1 µM.
For `COc1c(Nc2nc(Nc3cnn(C)c3)ncc2C(N)=O)cccc1-c1nnc(C)o1` [Compound 3, 4-[2-methoxy-3-(5-methyl-1,3,4-oxadiazol-2-yl)anilino]-2-[(1-methylpyrazol-4-yl)amino]pyrimidine-5-carboxamide], the CC50 in the data set on Ba/F3 (JAK2 V617F) cells is 5 to 10 µM. Further, the CC50 at 72 h in data set [1], in data set [2] (setting [3]) and in data set [2] (setting [4]) was over 10 µM in each case. The EC50 at JAK2 JH2 fell in the range of 0.01 to 0.05 µM.
As to `COc1c(Nc2nc(Nc3cnn(CCCN(C)C)c3)ncc2C(N)=O)cccc1-c1ncn(C)n1` [Compound 28, 2-[[1-[3-(dimethylamino)propyl]pyrazol-4-yl]amino]-4-[2-methoxy-3-(1-methyl-1,2,4-triazol-3-yl)anilino]pyrimidine-5-carboxamide], the CC50 in the data set on Ba/F3 (JAK2 V617F) cells fell in the range of 5 to 10 µM. The CC50 at 72 h in data set [1], in data set [2] (setting [3]) and in data set [2] (setting [4]) was over 10 µM each time. The compound further came in with an EC50 at JAK2 JH2 of over 0.1 µM.
As to `COc1c(Nc2nc(Nc3cnn(C4CCNCC4)c3)ncc2C(N)=O)cccc1-c1ncn(C)n1` [Compound 7, 4-((2-Methoxy-3-(1-methyl-1H-1,2,4-triazol-3-yl)phenyl)amino)-2-((1-(piperidin-4-yl)-1H-pyrazol-4-yl)amino)pyrimidine-5-carboxamide 2,2,2-trifluoroacetate], the CC50 in the data set on Ba/F3 (JAK2 V617F) cells lay within 1 to 5 µM. The CC50 at 72 h in data set [1], in data set [2] (setting [3]) and in data set [2] (setting [4]) was over 10 µM in each case. In addition, on JAK2 JH2, the EC50 lay in the range of 0.01 to 0.05 µM.
`CCn1nc(C)c(Nc2ncc(C(N)=O)c(Nc3cccc(-c4ncn(C)n4)c3OC)n2)c1C` [Compound 18, 2-[(1-ethyl-3,5-dimethyl-pyrazol-4-yl)amino]-4-[2-methoxy-3-(1-methyl-1,2,4-triazol-3-yl)anilino]pyrimidine-5-carboxamide]: in the data set with Ba/F3 (JAK2 V617F) cells, the CC50 was in the range of 5 to 10 µM. In addition, the CC50 at 72 h in data set [1], in data set [2] (setting [3]) and in data set [2] (setting [4]) was over 10 µM each time. In addition, the EC50 at JAK2 JH2 is over 0.1 µM.
Take `COc1c(Nc2nc(Nc3cnn(C)c3)ncc2C(N)=O)cccc1-c1ccccn1` [Compound 2, 4-[2-methoxy-3-(2-pyridyl)anilino]-2-[(1-methylpyrazol-4-yl)amino]pyrimidine-5-carboxamide]: the CC50 in the data set with Ba/F3 (JAK2 V617F) cells was at most 0.5 µM. Besides, the figures for the CC50 at 72 h in data set [1], in data set [2] (setting [3]) and in data set [2] (setting [4]) were 1 to 5 µM, over 10 µM and over 10 µM, respectively. Further, the EC50 on JAK2 JH2 fell in the range of 0.05 to 0.1 µM.
As for `COc1c(Nc2nc(Nc3cnn(C4CCCCC4)c3)ncc2C(N)=O)cccc1-c1ncn(C)n1` [Compound 11, 2-[(1-cyclohexylpyrazol-4-yl)amino]-4-[2-methoxy-3-(1-methyl-1,2,4-triazol-3-yl)anilino]pyrimidine-5-carboxamide], in the data set on Ba/F3 (JAK2 V617F) cells, the CC50 is at most 0.5 µM. Moreover, the CC50 at 72 h in data set [1] was at most 0.5 µM; in data set [2] (setting [3]), 1 to 5 µM; in data set [2] (setting [4]), 1 to 5 µM. Moreover, the EC50 on JAK2 JH2 is at most 0.01 µM.
`COc1c(Nc2nc(Nc3cnn(C45CC6CC(CC(C6)C4)C5)c3)ncc2C(N)=O)cccc1-c1nc2ccccc2o1` [Compound 49, 2-[[1-(1-adamantyl)pyrazol-4-yl]amino]-4-[3-(1,3-benzoxazol-2-yl)-2-methoxy-anilino]pyrimidine-5-carboxamide]: the CC50 in the data set on Ba/F3 (JAK2 V617F) cells was 5 to 10 µM. On JAK2 JH2, this compound showed an EC50 of over 0.1 µM. In addition, the CC50 at 72 h in data set [2] (setting [3]) was 5 to 10 µM.
Regarding `COCCCn1cc(Nc2ncc(C(N)=O)c(Nc3cccc(-c4ncn(CCCOC)n4)c3OC)n2)cn1` [Compound 53], the CC50 in the data set on Ba/F3 (JAK2 V617F) cells was 1 to 5 µM. The same compound had an EC50 on JAK2 JH2 of 0.01 to 0.05 µM. Besides, the CC50 at 72 h in data set [2] (setting [3]) is over 10 µM.
Turning to `COc1c(Nc2nc(Nc3cnn(C4CCCCC4)c3)ncc2C(N)=O)cccc1-c1ccccn1` [Compound 39, 2-[(1-cyclohexylpyrazol-4-yl)amino]-4-[2-methoxy-3-(2-pyridyl)anilino]pyrimidine-5-carboxamide], the CC50 in the data set on Ba/F3 (JAK2 V617F) cells is at most 0.5 µM. Further, the EC50 at JAK2 JH2 was in the range of 0.05 to 0.1 µM. Moreover, the CC50 at 72 h in data set [2] (setting [3]) is 5 to 10 µM.
For `COc1c(Nc2nc(Nc3cnn(CC(F)(F)F)c3)ncc2C(N)=O)cccc1-c1nc2ccccc2o1` [Compound 57, 4-[3-(1,3-benzoxazol-2-yl)-2-methoxy-anilino]-2-[[1-(2,2,2-trifluoroethyl)pyrazol-4-yl]amino]pyrimidine-5-carboxamide], the CC50 in the data set on Ba/F3 (JAK2 V617F) cells was over 10 µM. Moreover, the EC50 on JAK2 JH2 was over 0.1 µM. Besides, the CC50 at 72 h in data set [2] (setting [3]) is over 10 µM.
